Patent US20240247080A1, “GLP1/GIP/NPY2 RECEPTOR TRIPLE AGONISTS” (Boehringer Ingelheim International GmbH, priority 2022, published 2024)
Read-outs that look alike come from different tables or passages of the source. Starred links: 1 amine or outer side, 2 acyl side, 3 side chain; linkers in the order of their positions; H or OH if unused. Non-standard residues stand in square brackets, D forms with d. Groups on a side chain read outwards from the residue. *: point of attachment. C20 diacid = O=C(O)CCCCCCCCCCCCCCCCCCC(=O)*; γGlu = O=C(O)[C@H](CCC(=O)[*:2])N[*:1]; εLys = N[C@@H](CCCCN[*:1])C(=O)[*:2]; AEEA = NCCOCCOCC(=O)O; Aib = CC(C)(N)C(=O)O

Legend:
Format in all cases: cell-based
Details in all cases: CreLuc reporter gene assay
hGLP1R = target: T1, hGLP1R (Homo sapiens, UniProt P43220); experiment: hGLP1R CreLuc reporter gene assay in 0.5% and 100% plasma
T1 construct: expressed in transfected cells; host or cells: HEK-293 cells carrying a CRE-luciferase reporter gene
In short: (§1)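 Agonist EC50s came from 8-concentration curves over four decades, fitted by non-linear variable-slope regression of CRE-driven luciferase luminescence. Cells were exposed 4 h at 37 °C, in buffer with 0.5% human plasma or in 100% plasma; GIPR was expressed in CHO cells, GLP-1R and NPY2R in HEK cells.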

hGIPR = target: T2, hGIPR (Homo sapiens, UniProt P48546); experiment: hGIPR CreLuc reporter gene assay in 0.5% and 100% plasma
T2 construct: expressed in transfected cells; host or cells: CHO cells carrying a CRE-luciferase reporter gene
T2 sequence (P48546 22-466): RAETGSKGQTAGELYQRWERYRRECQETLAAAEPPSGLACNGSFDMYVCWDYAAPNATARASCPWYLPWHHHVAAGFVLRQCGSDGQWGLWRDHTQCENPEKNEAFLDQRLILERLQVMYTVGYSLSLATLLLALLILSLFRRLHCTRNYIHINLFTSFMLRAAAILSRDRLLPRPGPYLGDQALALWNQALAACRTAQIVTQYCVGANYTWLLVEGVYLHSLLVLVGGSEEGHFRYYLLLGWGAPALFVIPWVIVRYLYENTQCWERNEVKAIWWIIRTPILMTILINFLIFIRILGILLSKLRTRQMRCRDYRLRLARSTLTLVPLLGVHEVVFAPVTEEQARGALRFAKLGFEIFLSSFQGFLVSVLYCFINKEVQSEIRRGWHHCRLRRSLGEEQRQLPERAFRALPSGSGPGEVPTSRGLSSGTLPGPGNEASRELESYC
In short: as §1

hNPY2R = target: T3, hNPY2R (Homo sapiens, UniProt P49146); experiment: hNPY2R CreLuc reporter gene assay in 0.5% and 100% plasma
T3 construct: expressed in transfected cells; host or cells: HEK-293 cells carrying a CRE-luciferase reporter gene
T3 sequence (P49146 1-381): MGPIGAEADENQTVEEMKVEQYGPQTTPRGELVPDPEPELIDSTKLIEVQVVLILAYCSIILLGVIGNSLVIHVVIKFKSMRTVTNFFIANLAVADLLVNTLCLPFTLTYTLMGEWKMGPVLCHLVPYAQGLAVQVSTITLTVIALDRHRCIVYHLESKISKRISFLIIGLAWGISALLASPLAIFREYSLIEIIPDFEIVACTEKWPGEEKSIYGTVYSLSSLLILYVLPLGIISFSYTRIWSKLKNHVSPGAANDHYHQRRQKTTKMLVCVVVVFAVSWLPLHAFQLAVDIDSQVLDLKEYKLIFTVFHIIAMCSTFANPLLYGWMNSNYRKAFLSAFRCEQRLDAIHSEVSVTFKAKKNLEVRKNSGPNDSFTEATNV
In short: as §1

[1] = 0.5% human plasma, read-out: hGLP1R 0.5% hP
[2] = 0.5% human plasma, read-out: hGIPR 0.5% hP
[3] = 0.5% human plasma, read-out: hNPY2R 0.5% hP
[4] = 100% human plasma, read-out: hGLP1R 100% hP
[5] = 100% human plasma, read-out: hGIPR 100% hP
[6] = 100% human plasma, read-out: hNPY2R 100% hP

T1 sequence (P43220 24-463): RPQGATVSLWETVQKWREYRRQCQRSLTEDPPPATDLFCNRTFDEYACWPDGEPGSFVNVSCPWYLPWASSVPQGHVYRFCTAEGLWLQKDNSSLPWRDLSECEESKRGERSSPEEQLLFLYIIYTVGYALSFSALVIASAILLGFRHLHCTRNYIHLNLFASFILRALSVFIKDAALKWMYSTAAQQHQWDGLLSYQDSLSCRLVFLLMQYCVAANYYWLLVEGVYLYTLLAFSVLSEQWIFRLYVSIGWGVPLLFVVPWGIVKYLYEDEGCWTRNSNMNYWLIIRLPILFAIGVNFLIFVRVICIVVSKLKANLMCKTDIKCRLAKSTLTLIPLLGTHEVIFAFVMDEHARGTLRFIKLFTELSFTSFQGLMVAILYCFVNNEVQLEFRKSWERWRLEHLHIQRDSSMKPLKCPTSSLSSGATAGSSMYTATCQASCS

EC50 (hGLP1R; [1]) | EC50 (hGIPR; [2]) | EC50 (hNPY2R; [3]) | EC50 (hGLP1R; [4]) | EC50 (hGIPR; [5]) | EC50 (hNPY2R; [6]) | Substance
0.4 nM | 0.11 nM | 24.8 nM | – | – | – | H-Y[Aib]EGTFTSDYSI[Aib]LDKQAQ[Aib]AFVEWLIK([εLys-γGlu-γGlu-γGlu-γGlu-γGlu-γGlu-C20 diacid])GGPSSGASLRHYYNWLTRQRY-NH2 [Compound 128, Y-Aib-E-G-T-F-T-S-D-Y-S-I-Aib-L-D-K-Q-A-Q-Aib-A-F-V-E-W-L-I-K(1,3)-GGPSSGASLRHYYNWLTRQRY-NH2.C20DA-gGlu-gGlu-gGlu-gGlu-gGlu-gGlu-eLys(1,2)]
– | 0.98 nM | 13 nM | 14.2 nM | – | – | H-Y[Aib]EGTFTSDYSI[Aib]LEAAKQ[Aib]AFVEWLIK([εLys-γGlu-γGlu-γGlu-γGlu-γGlu-γGlu-C20 diacid])GGPSSGASLRHYYNWLTRQRY-NH2 [Compound 25, Y-Aib-E-G-T-F-T-S-D-Y-S-I-Aib-L-E-A-A-K-Q-Aib-A-F-V-E-W-L-I-K(1,3)-GGPSSGASLRHYYNWLTRQRY-NH2.C20DA-gGlu-gGlu-gGlu-gGlu-gGlu-gGlu-eLys(1,2)]
0.33 nM | 0.98 nM | 24.8 nM | – | – | – | H-Y[Aib]EGTFTSDYSI[Aib]LEAQAQ[Aib]AFVEWLIK([εLys-γGlu-γGlu-γGlu-γGlu-γGlu-γGlu-C20 diacid])GGPSSGASLRHYYNWLTRQRY-NH2 [Compound 102, Y-Aib-E-G-T-F-T-S-D-Y-S-I-Aib-L-E-A-Q-A-Q-Aib-A-F-V-E-W-L-I-K(1,3)-GGPSSGASLRHYYNWLTRQRY-NH2.C20DA-gGlu-gGlu-gGlu-gGlu-gGlu-gGlu-eLys(1,2)]
0.24 nM | 0.64 nM | 18.7 nM | 11.6 nM | – | – | H-Y[Aib]EGTFTSDYSI[Aib]LEEEAQ[Aib]AFVEWLIK([εLys-γGlu-γGlu-γGlu-γGlu-γGlu-γGlu-C20 diacid])GGPSSGASLRHYYNWLTRQRY-NH2 [Compound 66, Y-Aib-E-G-T-F-T-S-D-Y-S-I-Aib-L-E-E-E-A-Q-Aib-A-F-V-E-W-L-I-K(1,3)-GGPSSGASLRHYYNWLTRQRY-NH2.C20DA-gGlu-gGlu-gGlu-gGlu-gGlu-gGlu-eLys(1,2)]
0.13 nM | 0.23 nM | 16.9 nM | – | 0.63 nM | – | H-Y[Aib]EGTFTSDYSI[Aib]LEEEAQ[Aib]AFVQWLIK([εLys-εLys-γGlu-γGlu-γGlu-γGlu-γGlu-C20 diacid])GGPSSGASLRHYYNWLTRQRY-NH2 [Compound 7, Y-Aib-E-G-T-F-T-S-D-Y-S-I-Aib-L-E-E-E-A-Q-Aib-A-F-V-Q-W-L-I-K(1,3)-GGPSSGASLRHYYNWLTRQRY-NH2.C20DA-gGlu-gGlu-gGlu-gGlu-gGlu-eLys-eLys(1,2)]
0.12 nM | 0.1 nM | 11.2 nM | 2.21 nM | 0.87 nM | – | H-Y[Aib]EGTFTSDYSI[Aib]LEEQAQ[Aib]AFVEWLIK([εLys-AEEA-AEEA-γGlu-γGlu-γGlu-γGlu-C20 diacid])GGPSSGASLRHYYNWLTRQRY-NH2 [Compound 100, Y-Aib-E-G-T-F-T-S-D-Y-S-I-Aib-L-E-E-Q-A-Q-Aib-A-F-V-E-W-L-I-K(1,3)-GGPSSGASLRHYYNWLTRQRY-NH2.C20DA-gGlu-gGlu-glu-gGlu-OEG-OEG-eLys(1,2)]
0.15 nM | 0.15 nM | 17.5 nM | – | 1.14 nM | – | H-Y[Aib]EGTFTSDYSI[Aib]LEEQAQ[Aib]AFVEWLIK([εLys-AEEA-γGlu-γGlu-γGlu-γGlu-γGlu-C20 diacid])GGPSSGASLRHYYNWLTRQRY-NH2 [Compound 110, Y-Aib-E-G-T-F-T-S-D-Y-S-I-Aib-L-E-E-Q-A-Q-Aib-A-F-V-E-W-L-I-K(1,3)-GGPSSGASLRHYYNWLTRQRY-NH2.C20DA-gGlu-gGlu-gGlu-gGlu-gGlu-OEG-eLys(1,2)]
0.15 nM | 0.14 nM | 14.9 nM | – | 0.95 nM | 70.4 nM | H-Y[Aib]EGTFTSDYSI[Aib]LEEQAQ[Aib]AFVEWLIK([εLys-γGlu-γGlu-γGlu-γGlu-C20 diacid])GGPSSGASLRHYYNWLTRQRY-NH2 [Compound 97, Y-Aib-E-G-T-F-T-S-D-Y-S-I-Aib-L-E-E-Q-A-Q-Aib-A-F-V-E-W-L-I-K(1,3)-GGPSSGASLRHYYNWLTRQRY-NH2.C20DA-gGlu-gGlu-gGlu-gGlu-eLys(1,2)]
0.14 nM | 0.43 nM | 13.5 nM | 2.48 nM | 3.01 nM | 85.7 nM | H-Y[Aib]EGTFTSDYSI[Aib]LEEQAQ[Aib]AFVEWLIK([εLys-γGlu-γGlu-γGlu-γGlu-γGlu-γGlu-C20 diacid])GGPSSGASLRHYYNWLTRQRY-NH2 [Compound 116, Y-Aib-E-G-T-F-T-S-D-Y-S-I-Aib-L-E-E-Q-A-Q-Aib-A-F-V-E-W-L-I-K(1,3)-GGPSSGASLRHYYNWLTRQRY-NH2.C20DA-gGlu-gGlu-gGlu-gGlu-gGlu-gGlu-eLys(1,2)]
0.06 nM | 0.15 nM | 13.4 nM | – | – | – | H-Y[Aib]EGTFTSDYSI[Aib]LEEQAQ[Aib]AFVEWLIK([εLys-γGlu-γGlu-γGlu-γGlu-γGlu-γGlu-C20 diacid])GGPSSGQSLRHYYNWLTRQRY-NH2 [Compound 31, Y-Aib-E-G-T-F-T-S-D-Y-S-I-Aib-L-E-E-Q-A-Q-Aib-A-F-V-E-W-L-I-K(1,3)-GGPSSGQSLRHYYNWLTRQRY-NH2.C20DA-gGlu-gGlu-gGlu-gGlu-gGlu-gGlu-eLys(1,2)]
0.41 nM | 0.91 nM | 16.8 nM | – | – | – | H-Y[Aib]EGTFTSDYSI[Aib]LEGQAQ[Aib]AFVEWLIK([εLys-γGlu-γGlu-γGlu-γGlu-γGlu-γGlu-C20 diacid])GGPSSGASLRHYYNWLTRQRY-NH2 [Compound 99, Y-Aib-E-G-T-F-T-S-D-Y-S-I-Aib-L-E-G-Q-A-Q-Aib-A-F-V-E-W-L-I-K(1,3)-GGPSSGASLRHYYNWLTRQRY-NH2.C20DA-gGlu-gGlu-gGlu-gGlu-gGlu-gGlu-eLys(1,2)]
0.13 nM | 0.28 nM | 20.5 nM | – | – | – | H-Y[Aib]EGTFTSDYSI[Aib]LEK(Ac)QAQ[Aib]AFVEWLIK([εLys-γGlu-γGlu-γGlu-γGlu-γGlu-γGlu-C20 diacid])GGPSSGASLRHYYNWLTRQRY-NH2 [Compound 192, Y-Aib-E-G-T-F-T-S-D-Y-S-I-Aib-L-E-KAc-Q-A-Q-Aib-A-F-V-E-W-L-I-K(1,3)-GGPSSGASLRHYYNWLTRQRY-NH2.C20DA-gGlu-gGlu-gGlu-gGlu-gGlu-glu-eLys(1,2)]
0.32 nM | 0.31 nM | 15.1 nM | – | 2.03 nM | 64.7 nM | H-Y[Aib]EGTFTSDYSI[Aib]LEKAAQ[Aib]AFVEWLIK([εLys-γGlu-γGlu-γGlu-γGlu-γGlu-γGlu-C20 diacid])GGPSSGASLRHYYNWLTRQRY-NH2 [Compound 136, Y-Aib-E-G-T-F-T-S-D-Y-S-I-Aib-L-E-K-A-A-Q-Aib-A-F-V-E-W-L-I-K(1,3)-GGPSSGASLRHYYNWLTRQRY-NH2.C20DA-gGlu-gGlu-gGlu-gGlu-gGlu-gGlu-eLys(1,2)]
